# Test system: HIV-1 from patient plasma samples
# Test: PHENOSENSE HIV phenotypic susceptibility assay, fold change in IC50 of patient virus versus NL4-3 reference virus
# Format: cell-based
# Conditions: Patient IC50/reference (NL4-3) IC50; for Fold change (FC) in IC50, 10th percentile: 10th percentile of distribution over 1515 patient samples, hypersusceptibility cut-off; for Fold change (FC) in IC50, 90th percentile: 90th percentile of distribution over 1515 patient samples; for Fold change (FC) in IC50, mean: mean over 1515 patient samples without resistance-selected mutations; for Fold change (FC) in IC50, median: median over 1515 patient samples without resistance-selected mutations
# Description: In a preferred embodiment, the phenotypic analysis is performed using PHENOSENSE™ (ViroLogic Inc., South San Francisco, Calif.). See Petropoulos et al., 2000, Antimicrob. Agents Chemother. 44:920-928; U.S. Pat. Nos. 5,837,464 and 6,242,187. PHENOSENSE™ is a phenotypic assay that achieves the benefits of phenotypic testing and overcomes the drawbacks of previous assays. Because the assay has been automated, PHENOSENSE™ offers higher throughput under controlled conditions. The result is an assay that accurately defines the susceptibility profile of a patient's HIV isolates to all currently available antiretroviral drugs, and delivers results directly to the physician within about 10 to about 15 days of sample receipt. PHENOSENSE™ is accurate and can obtain results with only one round of viral replication, thereby avoiding selection of subpopulations of virus. The results are quantitative, measuring varying degrees of drug susceptibility, and sensitive—the test can be performed on blood specimens with a viral load of about 500 copies/mL and can detect minority populations of some drug-resistant virus at concentrations of 10% or less of total viral population. Furthermore, the results are reproducible and can vary by less than about 1.4-2.5 fold, depending on the drug, in about 95% of the assays performed.
# A resistance test vector (“RTV”) can then be constructed by incorporating the amplified viral gene sequences into a replication defective viral vector by using any method known in the art of incorporating gene sequences into a vector. In one embodiment, restrictions enzymes and conventional cloning methods are used. See Sambrook et al., 2001, Molecular Cloning: A Laboratory Manual, Cold Spring Harbor Laboratory, 3rd ed., NY; and Ausubel et al., 1989, Current Protocols in Molecular Biology, Greene Publishing Associates and Wiley Interscience, NY. In a preferred embodiment, ApaI and PinAI restriction enzymes are used. Preferably, the replication defective viral vector is the indicator gene viral vector (“IGVV”). In a preferred embodiment, the viral vector contains a means for detecting replication of the RTV. Preferably, the viral vector contains a luciferase expression cassette.
# The assay can be performed by first co-transfecting host cells with RTV DNA and a plasmid that expresses the envelope proteins of another retrovirus, for example, amphotropic murine leukemia virus (MLV). Following transfection, virus particles can be harvested and used to infect fresh target cells. The completion of a single round of viral replication can be detected by the means for detecting replication contained in the vector. In a preferred embodiment, the completion of a single round of viral replication results in the production of luciferase. Serial concentrations of anti-viral agents can be added at either the transfection step or the infection step.
# Susceptibility to the anti-viral agent can be measured by comparing the replication of the vector in the presence and absence of the anti-viral agent. For example, susceptibility to the anti-viral agent can be measured by comparing the luciferase activity in the presence and absence of the anti-viral agent. Susceptible viruses would produce low levels of luciferase activity in the presence of anti-viral agents, whereas viruses with reduced susceptibility would produce higher levels of luciferase activity.
# In order to determine the relationship between an HIV-1 strain's protease sequence and its susceptibility to treatment with a protease inhibitor, a data set of patient plasma samples was analyzed genotypically as well as phenotypically. The phenotypic assay was conducted using the PHENOSENSE™ (Virologic, South San Francisco, Calif.) HIV assay (Petropoulos et al., 2000, Antimicrob. Agents Chemother. 44:920-928; U.S. Pat. Nos. 5,837,464 and 6,242,187). Plasma samples were collected from HIV-1-infected patients. […]
Structure (SMILES),"Fold change (FC) in IC50, 10th percentile","Fold change (FC) in IC50, 90th percentile","Fold change (FC) in IC50, mean","Fold change (FC) in IC50, median"
"CC(C)CN(C[C@@H](O)[C@H](Cc1ccccc1)NC(=O)O[C@H]1CCOC1)S(=O)(=O)c1ccc(N)cc1 [APV, amprenavir]",0.35,1.32,0.69,0.71
"CC(C)c1nc(CN(C)C(=O)N[C@H](C(=O)N[C@@H](Cc2ccccc2)C[C@H](O)[C@H](Cc2ccccc2)NC(=O)OCc2cncs2)C(C)C)cs1 [RTV, ritonavir]",0.45,1.55,0.82,0.81
"Cc1cccc(C)c1OCC(=O)N[C@@H](Cc1ccccc1)[C@@H](O)C[C@H](Cc1ccccc1)NC(=O)[C@H](C(C)C)N1CCCNC1=O [LPV, lopinavir]",0.40,1.15,0.68,0.69
"Cc1c(O)cccc1C(=O)N[C@@H](CSc1ccccc1)[C@H](O)CN1C[C@H]2CCCC[C@H]2C[C@H]1C(=O)NC(C)(C)C [NFV, nelfinavir]",0.54,2.09,1.05,1.05
"CC(C)(C)NC(=O)[C@@H]1C[C@@H]2CCCC[C@@H]2CN1C[C@@H](O)[C@H](Cc1ccccc1)NC(=O)[C@H](CC(N)=O)NC(=O)c1ccc2ccccc2n1 [SQV, saquinavir]",0.44,1.12,0.70,0.71
"CC(C)(C)NC(=O)[C@@H]1CN(Cc2cccnc2)CCN1C[C@@H](O)C[C@@H](Cc1ccccc1)C(=O)N[C@H]1c2ccccc2C[C@H]1O [IDV, indinavir]",0.44,1.35,0.78,0.78
